Earlier results as cited in publication PMC12643354, “From Oxygen to Tellurium: The Impact of the Chalcogen on Nucleophilicities and Basicities of Isochalcogenourea Catalysts” (Angewandte Chemie (International Ed. in English), 2025).
Read-outs that look alike come from different tables or passages of the source. Marks after values point to notes of the source that are not given here.

What was measured:
[1] = parameters: method as in PMID 21568333; details: (ind)2CH+, E = −8.76, dichloromethane, 20 °C; cited from earlier work
[2] = parameters: method as in PMID 21568333; details: (thq)2CH+, E = −8.22, dichloromethane, 20 °C; cited from earlier work
[3] = parameters: method as in PMID 21568333; details: (pyr)2CH+, E = −7.69, dichloromethane, 20 °C; cited from earlier work
[4] = parameters: method as in PMID 21568333; details: (dma)2CH+, E = −7.02, dichloromethane, 20 °C; cited from earlier work
[5] = dichloromethane, 20 °C; cited from earlier work
[6] = in dichloromethane, 20 °C; cited from earlier work
[7] = in methanolic aqueous solution (1:5-mixture); cited from earlier work

c1ccc2c(c1)SC1=NCCCN12 [ITU3, DHPB]
Second-order rate constant k2 exptl [1]: 1.11 × 10^4 ^a) L mol^−1 s^−1
Second-order rate constant k2 exptl [2]: 2.07 × 10^4 ^a) L mol^−1 s^−1
Second-order rate constant k2 exptl [3]: 7.49 × 10^4 ^a) L mol^−1 s^−1
Second-order rate constant k2 exptl [4]: 2.29 × 10^5 ^a) L mol^−1 s^−1
Nucleophile-specific sensitivity parameter sN [5]: 0.78
Nucleophilicity parameter N [5]: 13.86
Lewis basicity LB [6]: 15.39
Brønsted basicity pKaH(H2O) [7]: 9.9 ^c)
